In US12459951B2, “Compounds that interact with RAS superfamily proteins for treatment of cancers, inflammatory diseases, rasopathies, and fibrotic disease” (SHY Therapeutics, LLC, priority 2022, dated 2025):
Read-outs that look alike come from different tables or passages of the source.

Assays:
KRas G12D mutant = assay: Ras GTP Binding Domain Inhibition Assay (Ras Superfamily Assay); conditions: at 20 μM; for KRas G12D mutant + SOS: % inh.: with SOS; for KRas G12D mutant: % inh.: without SOS
Procedure, shortened: (§1)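 His-tagged GTPases immobilised on nickel-coated plates, pre-incubated with compound (20 μM single point, or serial dilution for IC50) 3 h at room temperature, with or without 10-30 μg/mL Sos (residues 556-1049) in the final hour. Bound Cy3- or Cy5-GTP (100 nM, 45 min) measured by fluorescence after washing.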

KRas wild type = assay: as above; conditions: at 20 μM; for KRas wild type + SOS: % inh.: with SOS; for KRas wild type: % inh.: without SOS
Procedure, shortened: as §1

[1] = test system: MiaPaca-2 (expressing KRAS G12C mutant); assay: Proliferation Assay (Cell Viability Assay); type: cell-based; conditions: Homo sapiens, MIA PaCa-2
Procedure, shortened: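 After 2–4 days' exposure at 37 °C, 5% CO2 to a single 10 μM final concentration or a dilution series (IC50), percent proliferation inhibition was derived from CellTiter 96 Aqueous One viability readings. The medium contained 0.3% DMSO and 10% FBS. KRAS G12C MiaPaca-2 cells were plated at 2000–5000/well the day before.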

[2] = read-out: Proliferation in MiaPaca-2: IC50
[3] = Proliferation assay, MiaPaca-2, read-out: MiaPaca-2 IC50 (nM) Pancreatic

| SMILES | KRas G12D mutant + SOS: % inh. (KRas G12D mutant) | KRas G12D mutant: % inh. (KRas G12D mutant) | KRas wild type + SOS: % inh. (KRas wild type) | KRas wild type: % inh. (KRas wild type) | IC50 [1, 2] | IC50 [1, 3] |
| --- | --- | --- | --- | --- | --- | --- |
| COc1cccc(-c2cn3nc(-c4nccn4C)nc(N[C@H]4C[C@H](OC)C4)c3c2-c2ccccn2)c1C [Compound 274, 6-(3-Methoxy-2-methylphenyl)-N-((1r,3r)-3-methoxycyclobutyl)-2-(1-methyl-1H-imidazol-2-yl)-5-(pyridin-2-yl)pyrrolo[2,1-f][1,2,4]triazin-4-amine] | A (A = 1-25% inhibition) | B (B = 26-49% inhibition) | 0 (0 = 0% inhibition) | 0 (0 = 0% inhibition) | 150 to 500 nM | – |
| Cc1c(-c2ccn(C)n2)cn2nc(-c3nccn3C)nc(Nc3cc(-n4ccnc4C)ccn3)c12 [Compound 246, 5-Methyl-N-(4-(2-methyl-1H-imidazol-1-yl)pyridin-2-yl)-2-(1-methyl-1H-imidazol-2-yl)-6-(1-methyl-1H-pyrazol-3-yl)pyrrolo[2,1-f][1,2,4]triazin-4-amine] | D (D = 76-100% inhibition) | D (D = 76-100% inhibition) | D (D = 76-100% inhibition) | D (D = 76-100% inhibition) | 150 to 500 nM | – |
| CCOc1cc(Nc2nc(-c3nccn3C)nn3cc(-c4ccn(C)n4)c(C)c23)n[nH]1 [Compound 260, N-(5-Ethoxy-1H-pyrazol-3-yl)-5-methyl-2-(1-methyl-1H-imidazol-2-yl)-6-(1-methyl-1H-pyrazol-3-yl)pyrrolo[2,1-f][1,2,4]triazin-4-amine] | C (C = 50-75% inhibition) | C (C = 50-75% inhibition) | D (D = 76-100% inhibition) | D (D = 76-100% inhibition) | > 1000 nM | – |
| Cc1c(-c2ccn(C)n2)cn2nc(-c3nccn3C)nc(N3CCc4cc(C(F)(F)F)cnc43)c12 [Compound 251, 5-Methyl-2-(1-methyl-1H-imidazol-2-yl)-6-(1-methyl-1H-pyrazol-3-yl)-4-(5-(trifluoromethyl)-2,3-dihydro-1H-pyrrolo[2,3-b]pyridin-1-yl)pyrrolo[2,1-f][1,2,4]triazine] | B (B = 26-49% inhibition) | C (C = 50-75% inhibition) | A (A = 1-25% inhibition) | B (B = 26-49% inhibition) | > 1000 nM | – |
| COc1cc(Nc2nc(-c3nccn3C)nn3cc(-c4ccn(C)n4)c(C)c23)nn1C [Compound 253, N-(5-Methoxy-1-methyl-1H-pyrazol-3-yl)-5-methyl-2-(1-methyl-1H-imidazol-2-yl)-6-(1-methyl-1H-pyrazol-3-yl)pyrrolo[2,1-f][1,2,4]triazin-4-amine] | D (D = 76-100% inhibition) | C (C = 50-75% inhibition) | D (D = 76-100% inhibition) | D (D = 76-100% inhibition) | 510 to 1000 nM | – |
| Cc1c(-c2ccn(C)n2)cn2nc(-c3nccn3C)nc(Nc3cc(-c4cccnc4)ccn3)c12 [Compound 250, N-([3,4′-Bipyridin]-2′-yl)-5-methyl-2-(1-methyl-1H-imidazol-2-yl)-6-(1-methyl-1H-pyrazol-3-yl)pyrrolo[2,1-f][1,2,4]triazin-4-amine] | D (D = 76-100% inhibition) | D (D = 76-100% inhibition) | D (D = 76-100% inhibition) | D (D = 76-100% inhibition) | < 150 nM | – |
| Cc1c(-c2ccn(C)n2)cn2nc(-c3nccn3C)nc(Nc3ccc(N4CCOCC4)cn3)c12 [Compound 247, 5-Methyl-2-(1-methyl-1H-imidazol-2-yl)-6-(1-methyl-1H-pyrazol-3-yl)-N-(5-morpholinopyridin-2-yl)pyrrolo[2,1-f][1,2,4]triazin-4-amine] | D (D = 76-100% inhibition) | D (D = 76-100% inhibition) | D (D = 76-100% inhibition) | D (D = 76-100% inhibition) | 510 to 1000 nM | – |
| COc1cc(Nc2nc(-c3nccn3C)nn3cc(-c4ccn(C)n4)c(C)c23)n[nH]1 [Compound 252, N-(5-Methoxy-1H-pyrazol-3-yl)-5-methyl-2-(1-methyl-1H-imidazol-2-yl)-6-(1-methyl-1H-pyrazol-3-yl)pyrrolo[2,1-f][1,2,4]triazin-4-amine] | D (D = 76-100% inhibition) | D (D = 76-100% inhibition) | D (D = 76-100% inhibition) | C (C = 50-75% inhibition) | < 150 nM | 10 to 50 nM |
| COc1cccc(-c2cn3nc(-c4nccn4C)nc(N[C@@H]4CC[C@H]4OC)c3c2-c2ccccc2)c1C (racemic) [Compound 272, rac 6-(3-Methoxy-2-methylphenyl)-N-((1R,2R)-2-methoxycyclobutyl)-2-(1-methyl-1H-imidazol-2-yl)-5-phenylpyrrolo[2,1-f][1,2,4]triazin-4-amine] | A (A = 1-25% inhibition) | C (C = 50-75% inhibition) | 0 (0 = 0% inhibition) | 0 (0 = 0% inhibition) | > 1000 nM | – |
| Cc1cc(Nc2nc(-c3nccn3C)nn3cc(-c4ccn(C)n4)c(C)c23)n[nH]1 [Compound 255, 5-Methyl-2-(1-methyl-1H-imidazol-2-yl)-6-(1-methyl-1H-pyrazol-3-yl)-N-(5-methyl-1H-pyrazol-3-yl)pyrrolo[2,1-f][1,2,4]triazin-4-amine] | D (D = 76-100% inhibition) | D (D = 76-100% inhibition) | D (D = 76-100% inhibition) | – | < 150 nM | 1 to 10 nM |
| Cc1c(-c2ccn(C)n2)cn2nc(-c3nccn3C)nc(Nc3cc(C(C)C)[nH]n3)c12 [Compound 268, N-(5-Isopropyl-1H-pyrazol-3-yl)-5-methyl-2-(1-methyl-1H-imidazol-2-yl)-6-(1-methyl-1H-pyrazol-3-yl)pyrrolo[2,1-f][1,2,4]triazin-4-amine] | D (D = 76-100% inhibition) | C (C = 50-75% inhibition) | D (D = 76-100% inhibition) | C (C = 50-75% inhibition) | < 150 nM | – |
